In publication PMC7206119, “RIP1 inhibition blocks inflammatory diseases but not tumor growth or metastases” (Cell Death and Differentiation, 2019):

What was measured:
Experiment in all cases: biochemical
Design in all cases: DiscoverX kinase panel, active-site competition binding (KINOMEscan type), percent of control at one concentration
Conditions in all cases: competition binding, percent of control
EPHB3 = EPHB3 (Homo sapiens, UniProt P54753)
STK36 = STK36 (Homo sapiens, UniProt Q9NRP7)
AAK1 = AAK1 (Homo sapiens, UniProt Q2M2I8)
TAOK2 = TAOK2 (Homo sapiens, UniProt Q9UL54)
Chain of TAOK2 (Q9UL54 whole entry): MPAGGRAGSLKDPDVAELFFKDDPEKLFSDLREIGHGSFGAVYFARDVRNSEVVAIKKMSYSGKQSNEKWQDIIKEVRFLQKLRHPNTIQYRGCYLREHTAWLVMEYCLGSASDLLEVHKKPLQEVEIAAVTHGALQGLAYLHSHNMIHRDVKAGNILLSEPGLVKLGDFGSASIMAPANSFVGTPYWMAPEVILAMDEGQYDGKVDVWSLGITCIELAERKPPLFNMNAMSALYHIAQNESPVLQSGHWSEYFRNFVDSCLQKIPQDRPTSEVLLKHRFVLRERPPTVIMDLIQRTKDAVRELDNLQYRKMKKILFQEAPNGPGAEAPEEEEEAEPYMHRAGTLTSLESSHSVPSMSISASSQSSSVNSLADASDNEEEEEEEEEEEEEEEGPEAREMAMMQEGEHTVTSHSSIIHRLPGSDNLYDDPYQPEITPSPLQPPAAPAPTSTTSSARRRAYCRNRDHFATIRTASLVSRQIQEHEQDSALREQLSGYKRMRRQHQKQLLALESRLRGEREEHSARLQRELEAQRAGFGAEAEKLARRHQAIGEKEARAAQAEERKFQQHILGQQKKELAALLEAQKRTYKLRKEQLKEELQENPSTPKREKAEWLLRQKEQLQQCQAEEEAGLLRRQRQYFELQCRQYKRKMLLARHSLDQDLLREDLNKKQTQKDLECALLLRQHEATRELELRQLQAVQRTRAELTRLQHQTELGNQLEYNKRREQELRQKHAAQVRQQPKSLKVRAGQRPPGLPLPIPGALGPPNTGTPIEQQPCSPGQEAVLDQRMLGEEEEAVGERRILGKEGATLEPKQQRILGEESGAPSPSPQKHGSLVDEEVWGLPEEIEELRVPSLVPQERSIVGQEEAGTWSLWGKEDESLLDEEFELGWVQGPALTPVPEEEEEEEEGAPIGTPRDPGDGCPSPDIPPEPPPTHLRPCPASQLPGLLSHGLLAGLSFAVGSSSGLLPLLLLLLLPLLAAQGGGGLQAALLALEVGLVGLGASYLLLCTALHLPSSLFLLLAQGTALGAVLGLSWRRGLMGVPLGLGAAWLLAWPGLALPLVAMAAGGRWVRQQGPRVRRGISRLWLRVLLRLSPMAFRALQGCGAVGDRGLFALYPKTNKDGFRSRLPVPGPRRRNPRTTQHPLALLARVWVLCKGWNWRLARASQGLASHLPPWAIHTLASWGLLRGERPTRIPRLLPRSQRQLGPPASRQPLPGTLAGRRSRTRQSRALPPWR

FGR = FGR (Homo sapiens, UniProt P09769)
Chain of FGR (P09769 whole entry): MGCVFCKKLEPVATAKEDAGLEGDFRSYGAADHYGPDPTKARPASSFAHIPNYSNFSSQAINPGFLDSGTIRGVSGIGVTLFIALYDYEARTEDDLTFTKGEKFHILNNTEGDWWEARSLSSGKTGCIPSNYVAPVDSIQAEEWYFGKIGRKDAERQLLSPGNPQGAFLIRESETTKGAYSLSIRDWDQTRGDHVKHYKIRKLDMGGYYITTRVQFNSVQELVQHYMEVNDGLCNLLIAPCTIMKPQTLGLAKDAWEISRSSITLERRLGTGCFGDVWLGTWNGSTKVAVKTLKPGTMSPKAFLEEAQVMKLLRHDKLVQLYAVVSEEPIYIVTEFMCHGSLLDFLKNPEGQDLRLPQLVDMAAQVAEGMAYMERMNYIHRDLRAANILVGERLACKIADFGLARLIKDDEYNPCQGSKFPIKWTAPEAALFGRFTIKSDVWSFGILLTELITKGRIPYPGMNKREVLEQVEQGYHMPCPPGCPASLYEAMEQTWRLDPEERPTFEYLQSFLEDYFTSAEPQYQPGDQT

[1] = target: T1, ABL1(F317I)-nonphosphorylated (Homo sapiens, UniProt P00519, F317I)
T1 construct: nonphosphorylated

PRP4 = target: T2, PRP4 (Homo sapiens, UniProt Q13523)
T2 construct: gene PRPF4B

SGK2 = SGK2 (Homo sapiens, UniProt Q9HBY8)
Chain of SGK2 (Q9HBY8 whole entry): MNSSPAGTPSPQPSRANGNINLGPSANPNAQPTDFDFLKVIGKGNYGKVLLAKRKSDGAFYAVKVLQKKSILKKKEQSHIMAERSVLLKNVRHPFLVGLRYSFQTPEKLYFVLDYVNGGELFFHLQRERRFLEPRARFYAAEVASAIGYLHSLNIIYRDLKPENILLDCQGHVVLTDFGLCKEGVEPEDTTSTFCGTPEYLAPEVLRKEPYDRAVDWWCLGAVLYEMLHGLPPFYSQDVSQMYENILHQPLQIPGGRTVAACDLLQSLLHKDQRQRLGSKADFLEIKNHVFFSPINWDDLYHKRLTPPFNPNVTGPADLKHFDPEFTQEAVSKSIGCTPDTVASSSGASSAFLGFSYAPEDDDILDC

GCN2(Kin.Dom.2,S808G) = target: T3, GCN2(Kin.Dom.2,S808G) (Homo sapiens, UniProt Q9P2K8, S808G)
T3 construct: gene EIF2AK4; Kin.Dom.2

MLCK = target: T4, MLCK (Homo sapiens, UniProt Q32MK0)
T4 construct: gene MYLK3
T4 sequence (Q32MK0 whole entry): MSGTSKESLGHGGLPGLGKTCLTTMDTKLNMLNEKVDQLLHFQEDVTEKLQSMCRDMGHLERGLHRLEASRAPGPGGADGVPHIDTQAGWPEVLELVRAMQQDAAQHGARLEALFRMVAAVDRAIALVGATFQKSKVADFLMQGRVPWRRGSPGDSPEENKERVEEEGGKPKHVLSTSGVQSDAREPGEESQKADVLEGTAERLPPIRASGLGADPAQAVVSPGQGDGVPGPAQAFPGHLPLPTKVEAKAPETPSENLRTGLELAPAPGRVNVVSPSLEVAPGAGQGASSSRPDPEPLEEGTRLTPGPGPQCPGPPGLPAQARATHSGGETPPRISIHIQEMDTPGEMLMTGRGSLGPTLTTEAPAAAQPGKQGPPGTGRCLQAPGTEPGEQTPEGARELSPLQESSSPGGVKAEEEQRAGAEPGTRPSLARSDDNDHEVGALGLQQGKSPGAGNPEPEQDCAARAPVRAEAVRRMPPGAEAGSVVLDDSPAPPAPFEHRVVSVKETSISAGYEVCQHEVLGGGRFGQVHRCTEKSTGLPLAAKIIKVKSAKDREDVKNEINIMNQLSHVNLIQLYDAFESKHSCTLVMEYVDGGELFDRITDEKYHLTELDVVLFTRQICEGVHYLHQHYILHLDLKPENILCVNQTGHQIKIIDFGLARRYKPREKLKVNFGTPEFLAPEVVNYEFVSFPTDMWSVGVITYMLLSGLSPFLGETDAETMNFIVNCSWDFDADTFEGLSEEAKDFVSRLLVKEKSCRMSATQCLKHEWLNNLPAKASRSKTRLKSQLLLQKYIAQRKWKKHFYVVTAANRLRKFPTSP

GSK3B = GSK3B (Homo sapiens, UniProt P49841)
Chain of GSK3B (P49841 whole entry): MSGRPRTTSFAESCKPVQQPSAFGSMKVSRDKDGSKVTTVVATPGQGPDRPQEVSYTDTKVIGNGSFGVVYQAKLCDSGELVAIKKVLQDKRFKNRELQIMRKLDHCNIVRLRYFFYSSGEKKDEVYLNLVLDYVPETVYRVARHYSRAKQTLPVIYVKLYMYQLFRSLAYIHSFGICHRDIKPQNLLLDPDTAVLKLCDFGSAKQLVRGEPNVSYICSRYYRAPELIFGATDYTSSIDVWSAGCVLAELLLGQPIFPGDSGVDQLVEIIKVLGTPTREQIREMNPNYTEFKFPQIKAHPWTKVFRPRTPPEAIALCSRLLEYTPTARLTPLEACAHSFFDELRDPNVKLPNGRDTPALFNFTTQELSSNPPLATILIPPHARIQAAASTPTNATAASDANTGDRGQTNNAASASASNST

BUB1 = BUB1 (Homo sapiens, UniProt O43683)
[2] = target: T5, JAK1(JH1domain-catalytic) (Homo sapiens, UniProt P23458)
T5 construct: JH1domain-catalytic

MRCKA = target: T6, MRCKA (Homo sapiens, UniProt Q5VT25)
T6 construct: gene CDC42BPA
T6 sequence (Q5VT25 whole entry): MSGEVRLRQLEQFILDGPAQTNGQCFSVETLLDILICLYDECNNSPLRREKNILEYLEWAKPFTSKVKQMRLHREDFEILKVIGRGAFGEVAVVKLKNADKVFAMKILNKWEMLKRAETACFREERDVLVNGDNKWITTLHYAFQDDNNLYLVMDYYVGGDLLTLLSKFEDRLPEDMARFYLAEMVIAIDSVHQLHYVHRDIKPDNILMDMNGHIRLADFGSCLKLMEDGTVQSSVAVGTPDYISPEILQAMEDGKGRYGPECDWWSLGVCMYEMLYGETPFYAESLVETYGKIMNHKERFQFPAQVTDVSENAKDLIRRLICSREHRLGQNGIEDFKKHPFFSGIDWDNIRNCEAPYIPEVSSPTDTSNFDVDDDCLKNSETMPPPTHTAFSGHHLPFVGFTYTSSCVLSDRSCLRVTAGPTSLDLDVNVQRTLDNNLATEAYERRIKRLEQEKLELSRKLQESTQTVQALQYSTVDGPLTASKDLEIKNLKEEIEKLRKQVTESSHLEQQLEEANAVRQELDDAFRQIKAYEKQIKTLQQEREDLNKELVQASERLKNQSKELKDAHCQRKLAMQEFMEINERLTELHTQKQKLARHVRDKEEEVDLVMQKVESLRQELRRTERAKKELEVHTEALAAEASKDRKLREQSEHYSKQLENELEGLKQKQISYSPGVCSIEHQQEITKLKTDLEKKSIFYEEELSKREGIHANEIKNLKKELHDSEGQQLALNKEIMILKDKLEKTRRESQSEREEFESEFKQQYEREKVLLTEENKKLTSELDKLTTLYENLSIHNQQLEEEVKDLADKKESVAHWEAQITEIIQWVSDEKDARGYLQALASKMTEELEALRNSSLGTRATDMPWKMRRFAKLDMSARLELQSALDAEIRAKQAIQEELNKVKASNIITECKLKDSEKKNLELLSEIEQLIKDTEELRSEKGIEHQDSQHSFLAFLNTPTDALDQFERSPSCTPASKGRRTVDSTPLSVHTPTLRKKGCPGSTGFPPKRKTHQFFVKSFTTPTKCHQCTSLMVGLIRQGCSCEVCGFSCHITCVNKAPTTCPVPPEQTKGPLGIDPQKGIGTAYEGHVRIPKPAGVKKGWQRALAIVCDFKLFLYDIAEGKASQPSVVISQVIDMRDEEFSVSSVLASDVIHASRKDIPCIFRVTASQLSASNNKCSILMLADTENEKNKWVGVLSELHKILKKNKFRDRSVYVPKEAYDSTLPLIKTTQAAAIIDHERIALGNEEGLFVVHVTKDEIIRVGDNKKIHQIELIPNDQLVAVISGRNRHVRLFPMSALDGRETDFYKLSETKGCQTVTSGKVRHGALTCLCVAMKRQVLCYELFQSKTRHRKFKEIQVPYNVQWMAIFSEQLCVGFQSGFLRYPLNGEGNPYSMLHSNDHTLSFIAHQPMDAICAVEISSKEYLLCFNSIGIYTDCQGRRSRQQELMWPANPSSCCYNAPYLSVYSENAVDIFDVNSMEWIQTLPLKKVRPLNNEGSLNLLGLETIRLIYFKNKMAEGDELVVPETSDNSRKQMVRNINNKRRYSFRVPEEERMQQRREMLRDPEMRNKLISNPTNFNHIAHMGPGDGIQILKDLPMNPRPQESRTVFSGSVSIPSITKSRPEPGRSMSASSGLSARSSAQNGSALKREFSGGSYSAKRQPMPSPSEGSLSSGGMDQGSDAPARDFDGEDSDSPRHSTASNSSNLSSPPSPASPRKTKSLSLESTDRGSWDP

FLT1 = FLT1 (Homo sapiens, UniProt P17948)
CDC2L1 = target: T7, CDC2L1 (Homo sapiens, UniProt P21127)
T7 construct: gene CDK11B

INSRR = INSRR (Homo sapiens, UniProt P14616)
NLK = NLK (Homo sapiens, UniProt Q9UBE8)
VPS34 = target: T8, VPS34 (Homo sapiens, UniProt Q8NEB9)
T8 construct: gene PIK3C3

FLT3(D835Y) = FLT3(D835Y) (Homo sapiens, UniProt P36888, D835Y)
RIPK2 = RIPK2 (Homo sapiens, UniProt O43353)

COc1cc2c(cn1)N(C)C(=O)[C@@H](NC(=O)c1nc3n(n1)[C@H](c1ccccc1)CC3)CC2 [GNE684, (S)-N-((S)-7-methoxy-1-methyl-2-oxo-2,3,4,5-tetrahydro-1H-pyrido[3,4-b]azepin-3-yl)-5-phenyl-6,7-dihydro-5H-pyrrolo[1,2-b][1,2,4]triazole-2-carboxamide]
remaining binding at 10 µM (EPHB3): 100%
remaining binding at 10 µM (STK36): 85%
remaining binding at 10 µM (AAK1): 100%
remaining binding at 10 µM (TAOK2): 92%
remaining binding at 10 µM (FGR): 94%
remaining binding at 10 µM [1]: 97%
remaining binding at 10 µM (PRP4): 84%
remaining binding at 10 µM (SGK2): 99%
remaining binding at 10 µM (GCN2(Kin.Dom.2,S808G)): 100%
remaining binding at 10 µM (MLCK): 66%
remaining binding at 10 µM (GSK3B): 96%
remaining binding at 10 µM (BUB1): 100%
remaining binding at 10 µM [2]: 100%
remaining binding at 10 µM (MRCKA): 100%
remaining binding at 10 µM (FLT1): 100%
remaining binding at 10 µM (CDC2L1): 100%
remaining binding at 10 µM (INSRR): 92%
remaining binding at 10 µM (NLK): 94%
remaining binding at 10 µM (VPS34): 100%
remaining binding at 10 µM (FLT3(D835Y)): 100%
remaining binding at 10 µM (RIPK2): 100%
